Laboratory results reported in patent US20230348564A1, “ANTI-CANCER PROTEINS” (UNICHEM LABORATORIES LTD, priority 2020, published 2023).

Key:
Neuroblastoma (SH-SY5Y) = experiment: cytotoxicity in Brain Tumor Cell lines by MTT assay; format: cell-based, Human; details: 0.1 Mm-100 μM, 72 h
Description: (§1) The SEQ ID NO. […] Untreated cells were used as control. […] Cells were incubated for 3 h at 37° C.

Glioblastoma (LN-18) = experiment: as above; format: cell-based, Human; details: 0.1 Mm-100 μM, 72 h
Description: as §1

Astrocytoma (U87MG) = experiment: as above; details: 0.1 Mm-100 μM, 72 h
PANC-1 [1] = experiment: Annexin-V staining (flow cytometry); format: cell-based, Human; details: 24 h
Description: (§2) The cell lines were maintained in DMEM+10% FBS (heat inactivated) at 37° C. with 5% CO2, and 95% humidity. Antibiotics Penicillin (100 U/mL) and Streptomycin (100 μg/mL) were added to the medium.
(§3) The stock solution of recombinant lectin having the amino acid sequence of SEQ ID NO. […] Doxorubicin was used as positive control and stock solution was prepared in DMSO.
(§4) Cells were counted using hemocytometer and plated in culture plates at the density of 0.4×10^6 cells/well in DMEM+10% FBS in 6-well plates. Cells were incubated overnight to allow the cell recovery and exponential growth. Following overnight incubation, cells were treated with Lectin having the amino acid sequence of SEQ ID NO. 2 in DMEM+0% FBS at concentrations ranging from 2.5 μg/mL to 80 μg/mL. Untreated cells were included as Control group for sample. Cells treated with Doxorubicin were included as Positive Control group. DMSO treated cells were included as control group for Doxorubicin. After treatment, cells were incubated for a time period of 24 h.
(§5) Following incubation, the pro-apoptotic effect was estimated using Annexin assay kit as follows: Annexin reagent contains Annexin-V+7-AAD stain, which differentially labels apoptotic cells in different phases. Four populations of cells can be determined from the flow cytometric plots as follows: • a) Upper Left (UL)—7-AAD(+)/Annexin(−) or Necrotic cells • b) Upper Right (UR)—7-AAD(+)/Annexin(+) or Late apoptotic cells • c) Lower Left (LL)—7-AAD(−)/Annexin(−) or Viable/non-apoptotic cells • d) Lower Right (LR)—7-AAD(−)/Annexin(+) or Early apoptotic cells
(§6) Cells were gently harvested into pre-labeled sterile centrifuge tubes and centrifuged at 300×g for 5-7 min. Supernatant were discarded and the pellet was resuspended in 200 μl of fresh culture medium.
(§7) 100 μl of cell suspension was transferred into pre-labeled sterile centrifuge tubes.
(§8) 100 μl of Annexin-V reagent was added to each tube and incubated for 30 min at RT in dark.
(§9) Cells stained for Annexin-V were then transferred into 96-well plates and acquired on flow cytometer (Guava technologies). Percentage of cells in early apoptotic, late apoptotic and necrotic phase were determined.
(§10) Fold increase in apoptotic cells (treated with Test Items) was determined as compared to Control (untreated cells).

MDA-MB-231 [2] = experiment: Annexin-V staining (flow cytometry); format: cell-based, Human; details: 24 h
Description: as §2, §3, §4, §5, §6, §7, §8, §9, §10

PANC-1 [3] = experiment: JC-1 assay, mitochondrial membrane depolarization; format: cell-based, Human; details: 16h
Description: (§11) To evaluate the in vitro apoptotic effect of recombinant lectin having the amino acid sequence of SEQ ID NO.2 in MDA-MB-231 (breast cancer) and PANG-1 (pancreatic cancer) cell line by JC-1 assay, an increase in mitochondrial membrane depolarization was used as a marker of apoptosis. […] 2 using JC-1 dye based method. […] The cell lines were grown in Dulbecco's Modified Eagle Medium (DMEM)+10% heat inactivated FBS at 37° C. (95% humidity and 5% CO2). […] Recombinant lectin having the amino acid sequence of SEQ ID NO. 2 was diluted in serum free medium. Doxorubicin was used as positive control and stock solution was prepared in dimethyl sulfoxide (DMSO). […] The cells were then incubated overnight under growth conditions to allow the cell recovery and exponential growth. Cells were treated with the recombinant lectin of SEQ ID NO. […] Following respective treatments the cells in the above plate were incubated for 16h in CO2 incubator at 37° C., 5% CO2 and 95% humidity.
(§12) After 16h of incubation, the supernatants were discarded and 100 μL of JC1-dye solution (prepared by diluting 1 mM DMSO stock in to 10 μM in 1×PBS) was added to each well. The cells were then incubated with the dye in CO2 incubator at 37° C. for 15 min. After 15 min of incubation, the supernatant was removed and the cells were washed twice with 1×PBS and then 100 μL of 1×PBS was added to each well. Red fluorescence (excitation 550 nm, emission 600 nm) and green fluorescence (excitation 485 nm, emission 535 nm) were measured using Biotek Synergy FIT plate reader. The mitochondrial membrane potential […] was calculated as the ratio of intensity of red fluorescence to intensity of green fluorescence described as follows:
(§13) ΔΨM=Intensity of red fluorescence/Intensity of green fluorescence
(§14) The percentage decrease of Red fluorescence/Green fluorescence corresponding to each treatment was calculated using the following formula:
(§15) Where X=Δψm corresponding to treated cells R=ΔΨM corresponding to control wells.

MDA-MB-231 [4] = experiment: JC-1 assay, mitochondrial membrane depolarization; format: cell-based, Human; details: 16h
Description: as §11, §12, §13, §14, §15

COc1cccc2c1C(=O)c1c(O)c3c(c(O)c1C2=O)C[C@@](O)(C(=O)CO)C[C@@H]3O[C@H]1C[C@H](N)[C@H](O)[C@H](C)O1 [Doxorubicin, reference compound]
% of cytotoxicity (Neuroblastoma (SH-SY5Y)): 21.7%-61.7% | % of cytotoxicity (Glioblastoma (LN-18)): 6.5%-47.7% | % of cytotoxicity (Astrocytoma (U87MG)): 46.6%-72.4% | % Population of cells, LL Annex− 7AAD− Viable (PANC-1 [1]; 10 μM): 25.6% | % Population of cells, LR Annex+ 7AAD− Early apoptotic (PANC-1 [1]; 10 μM): 6.0% | % Population of cells, UL Annex− 7AAD+ Necrotic (PANC-1 [1]; 10 μM): 0.5% | % Population of cells, UR Annex+ 7AAD+ Late apoptotic (PANC-1 [1]; 10 μM): 67.9% | % Population of cells, LL Annex− 7AAD− Viable (PANC-1 [1]; 100 μM): 1.3% | % Population of cells, LR Annex+ 7AAD− Early apoptotic (PANC-1 [1]; 100 μM): 1.9% | % Population of cells, UL Annex− 7AAD+ Necrotic (PANC-1 [1]; 100 μM): 0.1% | % Population of cells, UR Annex+ 7AAD+ Late apoptotic (PANC-1 [1]; 100 μM): 96.6% | % Population of cells, LL Annex− 7AAD− Viable (MDA-MB-231 [2]; 10 μM): 0.7% | % Population of cells, LR Annex+ 7AAD− Early apoptotic (MDA-MB-231 [2]; 10 μM): 6.8% | % Population of cells, UL Annex− 7AAD+ Necrotic (MDA-MB-231 [2]; 10 μM): 0.0% | % Population of cells, UR Annex+ 7AAD+ Late apoptotic (MDA-MB-231 [2]; 10 μM): 92.5% | % Population of cells, LL Annex− 7AAD− Viable (MDA-MB-231 [2]; 100 μM): 0.0% | % Population of cells, LR Annex+ 7AAD− Early apoptotic (MDA-MB-231 [2]; 100 μM): 0.0% | % Population of cells, UL Annex− 7AAD+ Necrotic (MDA-MB-231 [2]; 100 μM): 0.0% | % Population of cells, UR Annex+ 7AAD+ Late apoptotic (MDA-MB-231 [2]; 100 μM): 100.0% | Average Green fluorescence (PANC-1 [3]; 0.1 μM): 258.5 | Average Red fluorescence (PANC-1 [3]; 0.1 μM): 653.7 | Percentage decrease in MMP (%) (PANC-1 [3]; 0.1 μM): −21.0% | Average Green fluorescence (PANC-1 [3]; 1 μM): 282.3 | Average Red fluorescence (PANC-1 [3]; 1 μM): 555.3 | Percentage decrease in MMP (%) (PANC-1 [3]; 1 μM): 5.9% | Average Green fluorescence (PANC-1 [3]; 10 μM): 208.3 | Average Red fluorescence (PANC-1 [3]; 10 μM): 350.0 | Percentage decrease in MMP (%) (PANC-1 [3]; 10 μM): 19.6% | Average Green fluorescence (PANC-1 [3]; 25 μM): 186.3 | Average Red fluorescence (PANC-1 [3]; 25 μM): 283.0 | Percentage decrease in MMP (%) (PANC-1 [3]; 25 μM): 27.3% | Average Green fluorescence (PANC-1 [3]; 50 μM): 161.7 | Average Red fluorescence (PANC-1 [3]; 50 μM): 192.5 | Percentage decrease in MMP (%) (PANC-1 [3]; 50 μM): 43.0% | Average Green fluorescence (MDA-MB-231 [4]; 0.1 μM): 473.0 | Average Red fluorescence (MDA-MB-231 [4]; 0.1 μM): 465.3 | Percentage decrease in MMP (%) (MDA-MB-231 [4]; 0.1 μM): 58.8% | Average Green fluorescence (MDA-MB-231 [4]; 1 μM): 345.5 | Average Red fluorescence (MDA-MB-231 [4]; 1 μM): 343.3 | Percentage decrease in MMP (%) (MDA-MB-231 [4]; 1 μM): 58.3% | Average Green fluorescence (MDA-MB-231 [4]; 10 μM): 534.0 | Average Red fluorescence (MDA-MB-231 [4]; 10 μM): 580.7 | Percentage decrease in MMP (%) (MDA-MB-231 [4]; 10 μM): 54.4% | Average Green fluorescence (MDA-MB-231 [4]; 25 μM): 336.3 | Average Red fluorescence (MDA-MB-231 [4]; 25 μM): 376.7 | Percentage decrease in MMP (%) (MDA-MB-231 [4]; 25 μM): 53.0% | Average Green fluorescence (MDA-MB-231 [4]; 50 μM): 318.0 | Average Red fluorescence (MDA-MB-231 [4]; 50 μM): 663.7 | Percentage decrease in MMP (%) (MDA-MB-231 [4]; 50 μM): 12.5%
